Measurements published in ChEMBL document CHEMBL1201862, “PubChem BioAssay data set” (2004).
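Exposure lasted 48 hours, with cells grown in 96-well plates and compounds tested at five concentrations. GI50: concentration for 50% inhibition of growth.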 Active and inactive are the calls of the source. Rule as the data show it: active = GI50 up to about 1.1 µM and inactive = higher.

How the values were obtained:
Assay in all cases: NCI-60 cell line screen, 48 h
[1] = test system: DLD-1
[2] = test system: DMS-114
[3] = test system: LXFL 529
[4] = test system: M19-MEL
[5] = test system: SNB-78
[6] = test system: XF498
[7] = test system: HOP-18
[8] = test system: KM-20L2
[9] = test system: RXF 631

Measured: GI50

COc1ccc2c(c1)O[C@@H]1c3ccc(OC)cc3OC[C@H]21
inactive: [1] 45.2 µM | [2] 27.5 µM | [3] 28.8 µM | [4] 31.4 µM | [5] 33.8 µM | [6] 25.6 µM

N#Cc1c(-c2ccccc2)c(-c2ccccc2)cc2c(=O)c3ccc(Cl)cc3[nH]c12
inactive: [1] > 100 µM | [7] > 100 µM | [8] > 100 µM | [3] > 100 µM | [4] > 100 µM | [6] > 100 µM

CCn1c(C)nc([N+](=O)[O-])c1Sc1ncc[nH]1
inactive: [1] 30.5 µM | [2] 34.4 µM | [7] 4.8 µM | [3] 26.1 µM | [4] 36.8 µM | [9] 24.7 µM | [5] 33.7 µM | [6] 43.2 µM

C[N+](C)(C)CC(=O)NC(=O)N/N=C\C(CC#N)CN(Cc1ccccc1)Cc1ccccc1 (stereo unspecified)
inactive: [1] > 100 µM | [2] > 100 µM | [7] 59.6 µM | [8] > 100 µM | [3] > 100 µM | [4] > 100 µM | [9] > 100 µM | [5] > 100 µM | [6] > 100 µM

N#Cc1ccc(Cc2ccccn2)cc1Cl
inactive: [1] > 100 µM | [2] > 100 µM | [7] > 100 µM | [3] > 100 µM | [4] > 100 µM | [9] > 100 µM | [5] > 100 µM

COC(=O)c1cc2c(=O)n(C)c3ccccc3n2c1C(=O)OC
inactive: [1] 30.1 µM | [2] > 100 µM | [8] 53.3 µM | [3] > 100 µM | [4] > 100 µM | [9] > 100 µM | [5] > 100 µM | [6] 20.4 µM

O=C(CC1(O)C(=O)Nc2c(Cl)ccc(Cl)c21)c1ccco1 (stereo unspecified)
inactive: [1] 39.7 µM | [2] 18 µM | [7] > 100 µM | [8] 37.8 µM | [3] 14 µM | [4] 2.31 µM | [9] 26.4 µM | [5] 51.8 µM | [6] 11.9 µM

COc1ccc2[nH]cc(CCNC(=O)[C@](O)(Cc3cn(C)c4ccccc34)[C@@]3(O)OCC(O)C3O)c2c1 (stereo partly specified)
inactive: [1] > 100 µM | [2] 35.6 µM | [7] > 100 µM | [8] > 100 µM | [3] 67.8 µM | [4] > 100 µM | [9] > 100 µM | [6] 90.6 µM

COC(=O)c1ccc(C=C(C#N)C#N)cc1
inactive: [1] 22.2 µM | [2] 19.2 µM | [7] 36.1 µM | [8] 30.6 µM | [3] 18.3 µM | [4] 25.2 µM | [9] 28.2 µM

Nc1ccccc1C(=O)/C=C/c1c(O)ccc2ccccc12
inactive: [1] > 100 µM | [2] > 100 µM | [7] > 100 µM | [8] > 100 µM | [3] > 100 µM | [4] 19.4 µM | [9] > 100 µM | [5] > 100 µM

CC1=CCC23C(C1)OC(Br)(C=CC2(C)O)C3(C)C (stereo unspecified)
inactive: [1] > 100 µM | [2] > 100 µM | [7] > 100 µM | [4] > 100 µM | [5] > 100 µM | [6] > 100 µM

COC1=CC(=O)C2(C=C1OC)OC[C@H]1Oc3c(ccc4c3C=CC(C)(C)O4)C(=O)[C@H]12 (stereo partly specified)
inactive: [1] 43.6 µM | [2] 25.2 µM | [8] 46.1 µM | [3] 33.3 µM | [4] 40.8 µM | [9] > 100 µM | [5] 37.8 µM | [6] 40.9 µM

O=C1CC[C@H](NC(=O)Cc2ccccc2)C(=O)N1 [ANTINEOPLASTON A10]
inactive: [1] > 1250 µM | [7] > 1250 µM | [8] > 1250 µM | [3] > 1250 µM | [4] > 1250 µM | [6] > 1250 µM

CC[C@H]1CC(=O)c2c(cc3c(c2O)C(=O)c2ccccc2C3=O)[C@@]1(C#N)C(=O)OC(C)(C)C
inactive: [1] 2.33 µM | [2] 3.21 µM | [7] 3.52 µM | [8] 4.08 µM | [3] 3.25 µM | [4] 3.7 µM | [5] 4.89 µM | [6] 2.74 µM

O=C1[C@@H]2C3c4ccccc4C([C@@H]2C(=O)N1c1ccccc1)S3(=O)=O
inactive: [1] > 100 µM | [2] 37.9 µM | [7] > 100 µM | [8] > 100 µM | [3] > 100 µM | [4] > 100 µM | [9] 26.8 µM | [5] > 100 µM | [6] > 100 µM

COc1ccc(C(=C(C#N)C#N)c2ccc(OC)cc2)cc1
inactive: [2] 77.1 µM | [8] > 100 µM | [3] > 100 µM | [5] > 100 µM

Cc1cc([N+](=O)[O-])c(C)c2c1[nH]c1ccc(O)cc12
inactive: [1] 16.8 µM | [2] 66.4 µM | [7] 55.1 µM | [4] > 100 µM | [5] > 100 µM | [6] > 100 µM

Cc1cc(=O)c2c([nH]1)NS(=O)(=O)NC2=O
inactive: [1] > 100 µM | [3] > 100 µM | [4] > 100 µM | [9] > 100 µM | [5] > 100 µM | [6] > 100 µM

Cc1ccc(/N=N/C(C(=O)c2ccccc2)C(=O)c2ccccc2)cc1
inactive: [1] 21.9 µM | [2] 20.1 µM | [8] 25.3 µM | [3] 14.5 µM | [4] 16 µM | [9] 35.8 µM | [6] 20.1 µM

CCOC(=O)NC/C=C/COC1CCCCO1 (stereo unspecified)
inactive: [1] > 100 µM | [2] > 100 µM | [7] > 100 µM | [8] > 100 µM | [3] > 100 µM | [4] > 100 µM | [5] > 100 µM

COc1ccc(/C=C2\C(=O)Nc3ccccc32)cc1OC
inactive: [7] > 100 µM | [8] > 100 µM | [3] 58.1 µM | [5] 37.7 µM | [6] > 100 µM

O=C1[C@@H]2C(c3ccccc3Br)=NO[C@@H]2C(=O)N1c1ccc(Cc2ccc(N3C(=O)[C@H]4C(c5ccccc5Br)=NO[C@H]4C3=O)cc2)cc1
inactive: [1] > 100 µM | [2] > 100 µM | [7] 45.6 µM | [8] > 100 µM | [3] > 100 µM | [4] > 100 µM | [9] > 100 µM | [5] > 100 µM | [6] 67.9 µM

O=C(N/C(=C\c1ccc(Cl)cc1)c1nc2ccccc2[nH]1)c1ccccc1
inactive: [1] 15.8 µM | [7] 13.7 µM | [8] 2.44 µM | [3] 15.3 µM | [4] 19 µM | [5] 29.3 µM | [6] 18.6 µM

C=CCC12CCC(=O)[C@@]1(C)CC=C(O)C2=O (stereo partly specified)
inactive: [1] > 100 µM | [2] > 100 µM | [7] > 100 µM | [8] > 100 µM | [3] > 100 µM | [4] > 100 µM | [5] > 100 µM

COc1cc2c(c(O)c1O)-c1ccc(OC)c(=O)cc1C(NC(C)=O)CC2 (stereo unspecified)
inactive: [1] 29.6 µM | [7] > 22.1 µM | [8] 3.8 µM | [3] 5.25 µM | [4] 6.98 µM | [9] 38 µM | [5] 4.54 µM | [6] 6.18 µM

NC(=O)/N=C1/CCC2C3CCCC2C13
inactive: [1] > 100 µM | [2] > 100 µM | [7] > 100 µM | [8] > 100 µM | [3] > 100 µM | [5] > 100 µM | [6] > 100 µM
